According to ChEMBL document CHEMBL1201862, “PubChem BioAssay data set” (2004):
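Briefly, cells in 96-well plates were exposed to five compound concentrations for 48 h, and endpoints were estimated by linear interpolation. Here, GI50 denotes the concentration required for 50% inhibition of growth.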 Activity calls are given as the source filed them. No stated cut-off is given here; in the data, active = GI50 up to about 1.1 µM and inactive = higher.

Assays:
Experiment in all cases: NCI anticancer screen, dose series, 48 h
ACHN = system: ACHN
CAKI-1 = system: CAKI-1
HCC 2998 = system: HCC 2998
HCT-116 = system: HCT-116
HL-60 = system: HL-60
HOP-62 = system: HOP-62
IGROV-1 = system: IGROV-1
K562 = system: K562
KM12 = system: KM12
M14 = system: M14
MCF7 = system: MCF7
OVCAR-3 = system: OVCAR-3
OVCAR-5 = system: OVCAR-5
SF-539 = system: SF-539
SK-MEL-5 = system: SK-MEL-5
SN12C = system: SN12C
SNB-75 = system: SNB-75
UACC-257 = system: UACC-257
UACC-62 = system: UACC-62
UO-31 = system: UO-31

| Structure (SMILES) | GI50 (ACHN) | GI50 (CAKI-1) | GI50 (HCC 2998) | GI50 (HCT-116) | GI50 (HL-60) | GI50 (HOP-62) | GI50 (IGROV-1) | GI50 (K562) | GI50 (KM12) | GI50 (M14) | GI50 (MCF7) | GI50 (OVCAR-3) | GI50 (OVCAR-5) | GI50 (SF-539) | GI50 (SK-MEL-5) | GI50 (SN12C) | GI50 (SNB-75) | GI50 (UACC-257) | GI50 (UACC-62) | GI50 (UO-31) |
| --- | --- | --- | --- | --- | --- | --- | --- | --- | --- | --- | --- | --- | --- | --- | --- | --- | --- | --- | --- | --- |
| CC1=NN(C(=O)c2ccccc2O)C(=O)/C1=C/c1ccc(O)cc1 | 0.204 µM (active) | 0.662 µM (active) | 3.22 µM (inactive) | 0.209 µM (active) | 1.02 µM (active) | 0.662 µM (active) | 0.14 µM (active) | 0.0667 µM (active) | 0.298 µM (active) | 0.351 µM (active) | 0.382 µM (active) | 0.278 µM (active) | 7.96 µM (inactive) | 0.188 µM (active) | 0.301 µM (active) | 1.62 µM (inactive) | 0.23 µM (active) | 0.658 µM (active) | 0.34 µM (active) | 0.153 µM (active) |
| C/C(=N\NC(=O)c1ccncc1)c1sc(-n2nc(-c3ccccc3)cc2-c2ccccc2)nc1C | > 31.6 µM (inactive) | 98.4 µM (inactive) | > 31.6 µM (inactive) | > 31.6 µM (inactive) | 21.5 µM (inactive) | > 31.6 µM (inactive) | > 33.7 µM (inactive) | 59.6 µM (inactive) | 99.5 µM (inactive) | > 31.6 µM (inactive) | > 31.6 µM (inactive) | 25.1 µM (inactive) | > 31.6 µM (inactive) | > 31.6 µM (inactive) | > 31.6 µM (inactive) | > 100 µM (inactive) | > 37.2 µM (inactive) | > 31.6 µM (inactive) | > 31.6 µM (inactive) | > 31.6 µM (inactive) |
| C[C@]12CCC(=O)C=C1CC[C@@H]1[C@@H]2[C@@H](O)C[C@@]2(C)[C@H]1CC[C@]2(O)C(=O)COC(=O)C1CCCC1 | > 100 µM (inactive) | > 100 µM (inactive) | > 100 µM (inactive) | > 100 µM (inactive) | > 100 µM (inactive) | > 100 µM (inactive) | > 100 µM (inactive) | > 100 µM (inactive) | > 100 µM (inactive) | > 100 µM (inactive) | > 100 µM (inactive) | > 100 µM (inactive) | > 100 µM (inactive) | > 100 µM (inactive) | > 100 µM (inactive) | > 100 µM (inactive) | > 100 µM (inactive) | > 100 µM (inactive) | > 100 µM (inactive) | > 100 µM (inactive) |
| S=c1c2nc[nH]c2ncn1CCSC1=NC=NC2=NC=NC21 (stereo not given) | > 100 µM (inactive) | > 100 µM (inactive) | > 100 µM (inactive) | > 100 µM (inactive) | > 92 µM (inactive) | 66.1 µM (inactive) | > 100 µM (inactive) | 30.6 µM (inactive) | 76.2 µM (inactive) | 43.8 µM (inactive) | > 100 µM (inactive) | 57.1 µM (inactive) | > 100 µM (inactive) | > 84.1 µM (inactive) | > 100 µM (inactive) | > 100 µM (inactive) | > 66.1 µM (inactive) | > 81.3 µM (inactive) | 79.8 µM (inactive) | > 100 µM (inactive) |
| CC(C)C1(O)C(=O)N(c2c(F)c(F)c(F)c(F)c2F)C(=S)N1CCSc1ccccc1 (stereo not given) | 17.5 µM (inactive) | 12.2 µM (inactive) | 20.6 µM (inactive) | 18.2 µM (inactive) | 14.3 µM (inactive) | 18.5 µM (inactive) | 16.4 µM (inactive) | 13 µM (inactive) | 17.1 µM (inactive) | 17.5 µM (inactive) | 17.2 µM (inactive) | 16.4 µM (inactive) | 18.7 µM (inactive) | 20.1 µM (inactive) | 17.4 µM (inactive) | 15.3 µM (inactive) | 16.7 µM (inactive) | 18.2 µM (inactive) | 15.8 µM (inactive) | 15.5 µM (inactive) |
